Key:
Format in all cases: biochemical
Human Tyk2 kinase domain = biological target: T1, Human Tyk2 kinase domain (Homo sapiens, UniProt P29597); assay: Tyk2 Inhibition Assay (Omnia kinase fluorescence peptide substrate assay); details: averaged IC50 ranges; assay of Example A; 10 μM (Km app) or 1 mM ATP, 2 nM Tyk2
T1 construct: comprising amino acids 886 to 1187 with 10 additional histidine residues; 10xHis (histidine tag) (C, cleaved yes); made in house
T1 sequence (P29597 886-1187): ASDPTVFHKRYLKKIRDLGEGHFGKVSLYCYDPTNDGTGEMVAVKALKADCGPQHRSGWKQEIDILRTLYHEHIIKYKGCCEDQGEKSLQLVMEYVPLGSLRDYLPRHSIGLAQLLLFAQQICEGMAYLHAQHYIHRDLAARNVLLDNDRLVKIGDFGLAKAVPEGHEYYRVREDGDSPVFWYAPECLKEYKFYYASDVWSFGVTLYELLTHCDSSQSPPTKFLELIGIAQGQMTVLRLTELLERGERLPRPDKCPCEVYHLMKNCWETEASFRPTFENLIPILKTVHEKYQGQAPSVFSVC
Procedure, shortened: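 2 nM His-tag-cleaved kinase domain (aa 886–1187) with 8 μM Omnia Y12 peptide, 10 μM (Km app) or 1 mM ATP, pH 7.4 HEPES/10 mM MgCl2, 2% DMSO. Fluorescence (ex 360/em 485 nm) every 50 s for 45 min; IC50 from 4-parameter fit of POC, top dose 10 μM.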

JAK1 = biological target: T2, JAK1 (Homo sapiens, UniProt P23458); assay: JAK1 Inhibition Assay (Omnia kinase fluorescence peptide substrate assay); details: averaged IC50 ranges; assay of Example B; 40 μM (Km app) or 1 mM ATP, 15 nM JAK1
T2 construct: purchased Invitrogen Corporation, Carlsbad, Calif; PV4775

JAK2 = biological target: T3, JAK2 (Homo sapiens, UniProt O60674); assay: JAK2 Inhibition Assay (Omnia kinase fluorescence peptide substrate assay); details: averaged IC50 ranges; assay of Example C; 25 μM (Km app) or 1 mM ATP, 5 nM JAK2
T3 construct: purchased Invitrogen Corporation, Carlsbad, Calif; PV4288
Procedure, shortened: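 5 nM JAK2 phosphorylated 10 μM Omnia Y7 peptide with ATP at 25 μM (Km app) or 1 mM, in 25 mM HEPES pH 7.4, 10 mM MgCl2, 0.01% Triton X-100, 1 mM DTT, 2% DMSO. Fluorescence (360/485 nm) was read every 50 s for 45 min. 10-point 3-fold series from 10 μM; POC versus uninhibited and background controls, 4-parameter logistic IC50.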

JAK3 = biological target: T4, JAK3 (Homo sapiens, UniProt P52333); assay: JAK3 Inhibition Assay (Omnia kinase fluorescence peptide substrate assay); details: averaged IC50 ranges; assay of Example D; 10 μM (Km app) or 1 mM ATP, 2.5 nM JAK3
T4 construct: purchased Invitrogen Corporation, Carlsbad, Calif; PV4080
T4 sequence (P52333 1-1124): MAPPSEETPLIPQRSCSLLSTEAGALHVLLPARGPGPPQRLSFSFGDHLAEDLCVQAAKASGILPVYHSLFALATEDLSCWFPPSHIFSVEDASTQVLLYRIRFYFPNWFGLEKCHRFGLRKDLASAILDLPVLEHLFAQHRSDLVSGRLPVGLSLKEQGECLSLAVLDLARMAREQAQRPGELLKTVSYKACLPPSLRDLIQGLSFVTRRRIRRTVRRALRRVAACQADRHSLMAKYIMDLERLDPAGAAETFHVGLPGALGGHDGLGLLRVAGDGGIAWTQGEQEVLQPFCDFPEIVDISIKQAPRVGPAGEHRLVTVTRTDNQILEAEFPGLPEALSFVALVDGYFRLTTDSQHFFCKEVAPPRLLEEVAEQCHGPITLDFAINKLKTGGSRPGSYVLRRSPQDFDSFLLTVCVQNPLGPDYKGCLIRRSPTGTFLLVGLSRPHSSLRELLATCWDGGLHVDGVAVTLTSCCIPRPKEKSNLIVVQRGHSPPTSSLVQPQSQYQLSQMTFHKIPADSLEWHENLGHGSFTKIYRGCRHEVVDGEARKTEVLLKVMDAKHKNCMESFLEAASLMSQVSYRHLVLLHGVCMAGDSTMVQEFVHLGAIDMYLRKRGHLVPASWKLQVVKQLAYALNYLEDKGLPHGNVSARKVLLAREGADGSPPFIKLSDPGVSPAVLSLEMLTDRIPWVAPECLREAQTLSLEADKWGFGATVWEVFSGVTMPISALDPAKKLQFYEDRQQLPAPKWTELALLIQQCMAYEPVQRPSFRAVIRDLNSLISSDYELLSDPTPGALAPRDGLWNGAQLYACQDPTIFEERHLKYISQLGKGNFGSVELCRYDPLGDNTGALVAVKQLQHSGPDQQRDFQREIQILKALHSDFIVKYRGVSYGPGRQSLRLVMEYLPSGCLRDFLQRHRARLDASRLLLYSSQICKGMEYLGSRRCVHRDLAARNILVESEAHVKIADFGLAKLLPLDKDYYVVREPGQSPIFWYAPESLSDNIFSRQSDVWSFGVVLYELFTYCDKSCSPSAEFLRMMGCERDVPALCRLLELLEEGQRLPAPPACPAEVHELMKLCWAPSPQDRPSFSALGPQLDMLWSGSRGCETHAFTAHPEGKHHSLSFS
Procedure, shortened: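 Kinase at 2.5 nM with 10 µM Omnia Y7 peptide and 10 µM (Km app) or 1 mM ATP in 25 mM HEPES pH 7.4, 10 mM MgCl2, 1 mM DTT, 0.01% Triton X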

T2 sequence (P23458 whole entry): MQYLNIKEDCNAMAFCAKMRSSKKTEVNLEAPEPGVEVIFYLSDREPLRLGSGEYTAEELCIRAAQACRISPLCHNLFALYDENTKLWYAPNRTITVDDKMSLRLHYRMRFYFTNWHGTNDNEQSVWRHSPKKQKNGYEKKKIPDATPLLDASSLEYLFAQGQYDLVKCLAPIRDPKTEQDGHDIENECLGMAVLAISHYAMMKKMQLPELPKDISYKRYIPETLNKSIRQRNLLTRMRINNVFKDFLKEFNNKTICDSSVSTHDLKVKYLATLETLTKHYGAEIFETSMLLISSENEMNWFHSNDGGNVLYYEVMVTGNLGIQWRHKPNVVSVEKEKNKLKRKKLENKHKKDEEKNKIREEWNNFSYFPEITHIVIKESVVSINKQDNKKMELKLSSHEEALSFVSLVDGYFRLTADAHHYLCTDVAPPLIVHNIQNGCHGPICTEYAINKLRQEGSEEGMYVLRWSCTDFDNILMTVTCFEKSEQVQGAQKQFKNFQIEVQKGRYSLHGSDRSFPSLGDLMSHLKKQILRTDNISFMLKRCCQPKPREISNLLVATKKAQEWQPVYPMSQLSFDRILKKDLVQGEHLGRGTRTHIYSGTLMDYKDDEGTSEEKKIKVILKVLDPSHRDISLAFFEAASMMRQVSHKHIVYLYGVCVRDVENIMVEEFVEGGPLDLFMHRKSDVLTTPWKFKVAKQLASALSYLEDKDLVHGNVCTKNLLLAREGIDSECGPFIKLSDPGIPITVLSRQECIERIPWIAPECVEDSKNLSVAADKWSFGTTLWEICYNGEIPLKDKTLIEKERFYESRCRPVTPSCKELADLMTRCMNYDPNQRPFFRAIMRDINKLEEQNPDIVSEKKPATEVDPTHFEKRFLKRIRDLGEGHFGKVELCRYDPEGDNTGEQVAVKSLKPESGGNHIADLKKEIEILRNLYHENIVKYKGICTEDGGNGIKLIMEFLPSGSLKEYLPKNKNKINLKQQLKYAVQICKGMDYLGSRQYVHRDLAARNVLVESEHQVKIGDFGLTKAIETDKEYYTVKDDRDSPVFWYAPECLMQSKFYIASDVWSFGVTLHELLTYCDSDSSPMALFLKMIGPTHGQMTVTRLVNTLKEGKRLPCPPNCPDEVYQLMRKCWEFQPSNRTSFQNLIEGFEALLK
T3 sequence (O60674 whole entry): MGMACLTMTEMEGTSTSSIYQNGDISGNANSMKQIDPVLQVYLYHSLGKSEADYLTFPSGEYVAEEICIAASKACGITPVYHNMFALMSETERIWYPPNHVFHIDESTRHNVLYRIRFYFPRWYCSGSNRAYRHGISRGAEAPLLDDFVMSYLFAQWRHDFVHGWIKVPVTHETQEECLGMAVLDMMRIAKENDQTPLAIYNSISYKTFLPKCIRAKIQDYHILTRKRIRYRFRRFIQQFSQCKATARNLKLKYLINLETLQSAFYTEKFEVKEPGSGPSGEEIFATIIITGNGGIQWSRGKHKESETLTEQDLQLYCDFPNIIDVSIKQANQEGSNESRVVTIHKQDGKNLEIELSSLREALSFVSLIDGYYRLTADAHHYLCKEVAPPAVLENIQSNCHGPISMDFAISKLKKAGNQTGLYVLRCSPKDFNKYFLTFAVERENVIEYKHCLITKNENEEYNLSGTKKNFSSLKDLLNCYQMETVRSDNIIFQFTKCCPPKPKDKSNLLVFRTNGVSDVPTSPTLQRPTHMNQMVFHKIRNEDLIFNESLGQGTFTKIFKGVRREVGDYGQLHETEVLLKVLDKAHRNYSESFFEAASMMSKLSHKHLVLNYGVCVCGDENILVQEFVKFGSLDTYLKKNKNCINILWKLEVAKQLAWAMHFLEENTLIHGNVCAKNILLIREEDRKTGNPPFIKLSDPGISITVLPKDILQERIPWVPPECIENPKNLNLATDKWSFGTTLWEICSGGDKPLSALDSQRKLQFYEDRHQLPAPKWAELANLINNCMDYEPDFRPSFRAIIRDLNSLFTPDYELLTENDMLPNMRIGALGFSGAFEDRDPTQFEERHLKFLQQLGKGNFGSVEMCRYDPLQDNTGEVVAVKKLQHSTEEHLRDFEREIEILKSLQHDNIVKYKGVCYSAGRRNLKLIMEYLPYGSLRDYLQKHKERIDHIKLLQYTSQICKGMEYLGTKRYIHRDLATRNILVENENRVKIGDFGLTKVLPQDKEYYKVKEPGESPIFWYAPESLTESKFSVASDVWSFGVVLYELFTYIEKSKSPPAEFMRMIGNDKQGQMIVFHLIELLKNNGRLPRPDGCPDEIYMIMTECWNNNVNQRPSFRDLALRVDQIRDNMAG

IC50 (Human Tyk2 kinase domain) [nM] | IC50 (JAK1) [nM] | IC50 (JAK2) [nM] | IC50 (JAK3) [nM] | Structure (SMILES)
< 10 | 100 to 1000 | 10 to 100 | 100 to 1000 | Cn1cc(-c2cc3nccn3c(-c3cnn(C4(CC#N)CC5(CCC5)C4)c3)n2)cn1 [Example 160, 2-(2-(4-(7-(1-methyl-1H-pyrazol-4-yl)imidazo[1,2-c]pyrimidin-5-yl)-1H-pyrazol-1-yl)spiro[3.3]heptan-2-yl)acetonitrile]
< 10 | 100 to 1000 | 10 to 100 | > 1000 | Cn1cc(-c2cc3nccn3c(-c3cnn(C4(CC#N)CC5(CCCC5)C4)c3)n2)cn1 [Example 161, 2-(2-(4-(7-(1-methyl-1H-pyrazol-4-yl)imidazo[1,2-c]pyrimidin-5-yl)-1H-pyrazol-1-yl)spiro[3.4]octan-2-yl)acetonitrile]
< 10 | 100 to 1000 | 10 to 100 | 100 to 1000 | N#CCC1(n2cc(-c3nc(-c4cnn(C5COC5)c4)cc4nccn34)cn2)CC2(CCC2)C1 [Example 162, 2-(2-(4-(7-(1-(oxetan-3-yl)-1H-pyrazol-4-yl)imidazo[1,2-c]pyrimidin-5-yl)-1H-pyrazol-1-yl)spiro[3.3]heptan-2-yl)acetonitrile]
